Holding throughout (settings): Stomach
The species entered for assay [1] is Oryctolagus cuniculus. Description: Activation of potassium channel in noradrenaline-precontracted New Zealand Oryctolagus cuniculus (rabbit) gastric fundus smooth muscle strips assessed as muscle relaxant activity. Type of assay: tissue-based.
The test system of assay [2] is Gastric fundus smooth muscle. The experiment in a line: Myorelaxant activity in noradrenaline-precontracted New Zealand Oryctolagus cuniculus (rabbit) gastric fundus smooth muscle strips in presence of small-conductance Ca2+-activated K+ channel blocker apamine. It is filed as functional.
The subject of assay [3] is Gastric fundus smooth muscle. Description: Myorelaxant activity in noradrenaline-precontracted New Zealand Oryctolagus cuniculus (rabbit) gastric fundus smooth muscle strips in presence of Ca2+-activated K+ channel blocker TEA. Type of assay: functional.
The species named for assay [4] is Oryctolagus cuniculus. Description: Activation of potassium channel in noradrenaline-precontracted New Zealand Oryctolagus cuniculus (rabbit) gastric fundus smooth muscle strips assessed as muscle relaxant activity relative to control. It is filed as tissue-based.
In assay [5] the test system is Gastric fundus smooth muscle. The experiment in a line: Myorelaxant activity in noradrenaline-precontracted New Zealand Oryctolagus cuniculus (rabbit) gastric fundus smooth muscle strips in presence of KV blocker 4-aminopyridine.
Assay [6] has as its system Gastric fundus smooth muscle. Description: Myorelaxant activity in noradrenaline-precontracted New Zealand Oryctolagus cuniculus (rabbit) gastric fundus smooth muscle strips in presence of K-ATP channel blocker glibenclamide. Type of assay: functional.
Assay [7] has as its system Gastric fundus smooth muscle. The experiment in a line: Myorelaxant activity in noradrenaline-precontracted New Zealand Oryctolagus cuniculus (rabbit) gastric fundus smooth muscle strips in presence of large-conductance Ca2+-activated K+ channel blocker iberiotoxin. Type of assay: functional.

Each structure is given as a SMILES string. Activity calls are given as the source filed them. The calls are words filed in the database; no cut-off is given here.

As usually defined, the Emax is the greatest response seen or fitted, relative to the assay's reference. Turning to `CC1CC(=O)C2=C(C1)NC1=C(C(=O)CC(C)C1)C2c1cccc(C(F)(F)F)c1` (configuration not stated), the pD2 result in assay [1] was “inactive”. The Emax entry in assay [2], in assay [3], in assay [4], in assay [5], in assay [6] and in assay [7] was “inactive” each time.

Regarding `CC1CC(=O)C2=C(C1)NC1=C(C(=O)CC(C)C1)C2c1cccc(C#N)c1` (configuration not stated), the pD2 in assay [1] is 4.7. Also, the Emax in assay [2] came out at 60.6%; in assay [3], 44.6%; in assay [4] it was 56%; in assay [5], 32.3%; in assay [6] it was 66%; in assay [7], 30.9%.

Take `CC1CC(=O)C2=C(C1)NC1=C(C(=O)CC(C)C1)C2c1ccc(C#N)cc1` (configuration not stated): the pD2 in assay [1] amounted to 4.57. The Emax was 45.7% in assay [2]; 45.2% in assay [3]; 46% in assay [4]; 51.1% in assay [5]; 45.2% in assay [6]; 52% in assay [7].

As for `CC1CC(=O)C2=C(C1)NC1=C(C(=O)CC(C)C1)C2c1ccc(C(F)(F)F)cc1` (configuration not stated), the pD2 in assay [1] was found to be 4.68. The Emax in assay [2] worked out at 26.7%; in assay [3] it was 35.1%; in assay [4] it was 33.8%; in assay [5], 14%; in assay [6], 43.8%; in assay [7] it was 43.3%.

Regarding `CC1CC(=O)C2=C(C1)NC1=C(C(=O)CC(C)C1)C2c1ccc([N+](=O)[O-])cc1` (configuration not stated), in assay [1], the pD2 is 4.66. The Emax in assay [2] was determined as 54.5%; in assay [3] it was 74.4%; in assay [4], 53.9%; in assay [5] it was 51.4%; in assay [6] it was 52%; in assay [7], 82.5%.

As to `CC(N/C(=N\C#N)Nc1ccncc1)C(C)(C)C` (configuration not stated), the pD2 in assay [1] worked out at 4.9. The Emax in assay [4] stood at 73.5%.

Consider `CC1CC(=O)C2=C(C1)NC1=C(C(=O)CC(C)C1)C2c1ccccc1[N+](=O)[O-]` (configuration not stated), for which the pD2 result in assay [1] is “inactive”. Besides, the Emax entry in assay [2], in assay [3], in assay [4], in assay [5], in assay [6] and in assay [7] was “inactive” throughout.

With `CC1CC(=O)C2=C(C1)NC1=C(C(=O)CC(C)C1)C2c1ccccc1F` (configuration not stated), the pD2 entry in assay [1] is “inactive”. Besides, the Emax entry in assay [2], in assay [3], in assay [4], in assay [5], in assay [6] and in assay [7] was “inactive” in each case.

Regarding `CC1CC(=O)C2=C(C1)NC1=C(C(=O)CC(C)C1)C2c1ccccc1C(F)(F)F` (configuration not stated), in assay [1], the pD2 entry is “inactive”. For the same compound, the Emax result in assay [2], in assay [3], in assay [4], in assay [5], in assay [6] and in assay [7] was “inactive” in each case.

In the case of `CC1CC(=O)C2=C(C1)NC1=C(C(=O)CC(C)C1)C2c1cccc([N+](=O)[O-])c1` (configuration not stated), the pD2 in assay [1] was found to be 4.57. For the same compound, the Emax in assay [2] was 35.3%; in assay [3], 54.6%; in assay [4], 62.1%; in assay [5], 54.1%; in assay [6], 51.8%; in assay [7], 54.4%.

`CC1CC(=O)C2=C(C1)NC1=C(C(=O)CC(C)C1)C2c1ccc(F)cc1` (configuration not stated): the pD2 in assay [1] was 4.6. Also, the Emax came out at 39.3% in assay [2]; 18.8% in assay [3]; 37.2% in assay [4]; 21.8% in assay [5]; 46.7% in assay [6]; 39.1% in assay [7].

These data come from ChEMBL document CHEMBL3046869, “Investigation of myorelaxant activity of 9-aryl-3,4,6,7-tetrahydroacridine-1,8-(2H,5H,9H,10H)-diones in isolated rabbit gastric fundus” (2012).
